# Reference: publication PMC12277314, “Design, synthesis, and anti-inflammatory potential of PROTAC drug molecules based on fondaparinux sodium” (Frontiers in Bioengineering and Biotechnology, 2025)
# “Also recorded” adds a separate entry of the source.
# Experiments:
# [1] = test system: IL-1β release, peripheral blood mononuclear cells (PBMCs); assay: LPS-induced IL-1β release in PBMCs (ELISA); assay type: cell-based, Human; conditions: 100 nM-10 μM
# Method: (§1) Human PBMCs were isolated from buffy coats (procured from Uppsala University Hospital, Sweden) using Ficoll density gradient centrifugation and stored at −150°C. Thawed PBMCs were cultured in Dulbecco’s Modified Eagle Medium (DMEM) supplemented with 10% fetal bovine serum (FBS) and 5% PeSt in a CO2 incubator. Cells were seeded in 24-well plates (0.5–1 × 10^6 cells/well in 1 mL medium). PROTAC analogs and FS were added at 10 μM, 1 μM, and 100 nM. Two setups were employed: one receiving only the compounds, and another in which LPS (20 ng/mL) was added 2 h after compound treatment. After 24 h, supernatants were collected for cytokine quantification by ELISA.
# (§2) All quantitative data are presented as mean ± SD. Sample size for each assay was n = 3 biological replicates. For multi-group comparisons, one-way ANOVA followed by Tukey’s post hoc test was used; for two-group comparisons, two-tailed, unpaired Student’s t-test was applied. P < 0.05 was considered significant.
# [2] = test system: inflammatory cytokines (IL-1β and TNF-α), PBMCs; assay: LPS-induced cytokine secretion in PBMCs, cytokines overall; assay type: cell-based, Human; conditions: 100 nM-10 μM
# Method: as §1, §2
# IL-6 = IL-6 (Homo sapiens, UniProt P05231); assay: SPR binding to immobilized IL-6; conditions: CM5 chip, 1:1 binding model, 0.38-12.50 µM analyte
# Sequence of IL-6 (P05231 30-212, species assumed): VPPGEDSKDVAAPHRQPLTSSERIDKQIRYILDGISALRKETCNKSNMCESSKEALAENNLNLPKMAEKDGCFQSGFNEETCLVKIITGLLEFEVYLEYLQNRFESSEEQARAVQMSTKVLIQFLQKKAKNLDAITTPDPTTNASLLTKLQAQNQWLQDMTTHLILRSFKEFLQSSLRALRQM
# Method: (§3) SPR was used to evaluate the binding affinity between the PROTAC molecules and the target proteins. Target proteins CCL5 and IL-6 were immobilized on a CM5 sensor chip via amine coupling, with unreacted sites blocked using ethanolamine (pH 8.5). The PROTAC molecules were injected at concentrations ranging from 0.38 µM to 12.50 µM in PBS-P running buffer (0.02 M phosphate buffer, 137 mM NaCl, 2.7 mM KCl, 0.2% DMSO, 0.05% P20, pH 7.4). Each injection lasted 120 s (association phase) followed by a 300-s dissociation phase at a flow rate of 30 μL/min. Data were analyzed using Biacore Insight Evaluation Software with a 1:1 binding model to determine KD values. In addition to the 1:1 Langmuir model, we tested bivalent-analyte and heterogeneous-ligand models. Both alternatives yielded substantially larger residuals and poorer overall fits, confirming the 1:1 Langmuir model as the most suitable for our sensorgram data.
# (§4) To comprehensively assess the biological functionality of the PROTAC molecules, binding kinetics with the target proteins CCL5 and IL-6 were investigated using the Biacore 8K^+ system. CCL5 and IL-6—key inflammatory mediators—were immobilized on a CM5 sensor chip (9000 RU) via amine coupling, and kinetic parameters were calculated using a 1:1 binding model.
# CCL5 = target: T1, CCL5 (Homo sapiens, UniProt P13501); assay: SPR binding to immobilized CCL5; conditions: for Kd: CM5 chip, 1:1 binding model, 0.38-12.50 µM analyte
# T1 sequence (P13501 24-91): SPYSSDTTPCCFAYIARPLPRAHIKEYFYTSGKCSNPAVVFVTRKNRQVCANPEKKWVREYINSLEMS
# Method: as §3, §4
# [3] = test system: TNF-α release, peripheral blood mononuclear cells (PBMCs); assay: LPS-induced TNF-α release in PBMCs (ELISA); assay type: cell-based, Human; conditions: 100 nM-10 μM
# Method: as §1, §2
# [4] = test system: colonic TNF-α and IL-1β levels; set-up: method as in Xu et al., 2024; conditions: murine colitis model; ref Xu et al., 2024; cited from earlier work
Compound,effect on LPS-induced IL-1β release (in words) [1],effect on LPS-induced cytokine secretion (in words) [2],Kd (IL-6),binding to CCL5 (in words) (CCL5; negative control),Kd (CCL5),effect on LPS-induced TNF-α (in words) [3],colonic TNF-α and IL-1β levels [4]
"CO[C@H]1O[C@H](COS(=O)(=O)O)[C@@H](O[C@@H]2O[C@@H](C(=O)O)[C@@H](O[C@H]3O[C@H](COS(=O)(=O)O)[C@@H](O[C@@H]4O[C@H](C(=O)O)[C@@H](O[C@H]5O[C@H](COS(=O)(=O)O)[C@@H](O)[C@H](O)[C@H]5NS(=O)(=O)O)[C@H](O)[C@H]4O)[C@H](OS(=O)(=O)O)[C@H]3NS(=O)(=O)O)[C@H](O)[C@H]2OS(=O)(=O)O)[C@H](O)[C@H]1NS(=O)(=O)O [FS, Fondaparinux Sodium]",no effect,did not elicit significant changes,13.5 µM,no binding,–,–,–
CO[C@H]1O[C@H](COS(=O)(=O)O)[C@@H](O[C@@H]2O[C@@H](C(=O)NCCCCCCCNc3cccc4c3C(=O)N(C3CCC(=O)NC3=O)C4=O)[C@@H](OC3O[C@H](COS(=O)(=O)O)[C@@H](O[C@@H]4O[C@H](C(=O)NCCCCCCCNc5cccc6c5C(=O)N(C5CCC(=O)NC5=O)C6=O)[C@@H](O[C@H]5O[C@H](COS(=O)(=O)O)[C@@H](O)[C@H](O)[C@H]5NS(=O)(=O)O)[C@H](O)[C@H]4O)[C@H](OS(=O)(=O)O)[C@H]3NS(=O)(=O)O)[C@H](O)[C@H]2OS(=O)(=O)O)[C@H](O)[C@H]1NS(=O)(=O)O (some centres unmarked) [Product 6],significantly inhibited,significant inhibition; also recorded: concentration-dependent suppression,8.27 µM,–,4.75 µM,–,–
CO[C@H]1O[C@H](COS(=O)(=O)O)[C@@H](O[C@@H]2O[C@@H](C(=O)NCCCCCc3cccc4c3CN(C3CCC(=O)NC3=O)C4=O)[C@@H](OC3O[C@H](COS(=O)(=O)O)[C@@H](O[C@@H]4O[C@H](C(=O)NCCCCCc5cccc6c5CN(C5CCC(=O)NC5=O)C6=O)[C@@H](O[C@H]5O[C@H](COS(=O)(=O)O)[C@@H](O)[C@H](O)[C@H]5NS(=O)(=O)O)[C@H](O)[C@H]4O)[C@H](OS(=O)(=O)O)[C@H]3NS(=O)(=O)O)[C@H](O)[C@H]2OS(=O)(=O)O)[C@H](O)[C@H]1NS(=O)(=O)O (some centres unmarked) [Product 8],no significant effect; also recorded: not statistically significant,did not elicit significant changes; also recorded: limited anti-inflammatory activity,–,–,9.48 µM,mild inhibition; also recorded: minimal,–
CO[C@H]1O[C@H](COS(=O)(=O)O)[C@@H](O[C@@H]2O[C@@H](C(=O)NCCCCCNc3cccc4c3C(=O)N(C3CCC(=O)NC3=O)C4=O)[C@@H](OC3O[C@H](COS(=O)(=O)O)[C@@H](O[C@@H]4O[C@H](C(=O)NCCCCCNc5cccc6c5C(=O)N(C5CCC(=O)NC5=O)C6=O)[C@@H](O[C@H]5O[C@H](COS(=O)(=O)O)[C@@H](O)[C@H](O)[C@H]5NS(=O)(=O)O)[C@H](O)[C@H]4O)[C@H](OS(=O)(=O)O)[C@H]3NS(=O)(=O)O)[C@H](O)[C@H]2OS(=O)(=O)O)[C@H](O)[C@H]1NS(=O)(=O)O (some centres unmarked) [Product 10],significantly inhibited,significant inhibitory effect; also recorded: concentration-dependent suppression,1.54 µM,–,11.3 µM,–,–
O=C(/C=C/C(=O)Nc1ccc(NC(=O)c2ccc([N+](=O)[O-])o2)cc1)NCCCCCCNc1cccc2c1C(=O)N(C1CCC(=O)NC1=O)C2=O (centres unmarked) [SP23],–,–,–,–,–,–,reduced
